Source: patent US20240228555A9, “ANTIMICROBIAL PEPTIDOMIMETICS” (Basilea Pharmaceutica International AG, Allschwil, priority 2020, published 2024)
Where a SMILES comes first, the peptide text is derived from it. Bridges are numbered along the chain shown (N, C = ends). [ ]: non-standard residue; d: D form. Hyp = O=C(O)[C@@H]1C[C@@H](O)CN1; Pen = CC(C)(S)[C@H](N)C(=O)O; dDab = NCC[C@@H](N)C(=O)O; Dab = NCC[C@H](N)C(=O)O

How the values were obtained:
[1] = system: Klebsiella pneumoniae SSI3010; conditions: SSI3010
Outline: (§1)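 Two-fold serial dilutions of peptide, in water with polysorbate 80 (0.002% final), met bacteria adjusted to 0.5 McFarland then diluted to about 5×10^5 CFU/mL. Medium was cation-adjusted Mueller-Hinton II broth; peptide stocks were 1 mg/mL in sterile water.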

[2] = system: Escherichia coli ATCC 25922; conditions: ATCC 25922
Outline: as §1

[3] = system: Escherichia coli MCR-1 Af 45; conditions: Mueller-Hinton broth II, no visible growth after 18-20 hours at 35° C.
Outline: as §1

[4] = system: human red blood cells (hRBC); assay type: cell-based; conditions: red cells of human, 1 h, 0.2 g/L
Outline: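 PBS-washed human erythrocytes (20% v/v) were incubated with compounds at 200 μg/mL for 1 h at 37° C with shaking. Supernatant OD540 was read after 8-fold dilution; hemolysis % = OD540 peptide / OD540 of the 100% lysis control (2.5% Triton X-100 in H2O) ×100, with PBS as 0%.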

In the case of `CC[C@H](C)[C@H](NC(=O)[C@@H]1C[C@@H](O)CN1C(=O)[C@@H](N)C(C)C)C(=O)N[C@@H](CCCCNC)C(=O)N[C@@H](Cc1ccc(O)cc1)C(=O)N[C@@H]1C(=O)N[C@@H](CC(N)=O)C(=O)N[C@@H](CCCNC(=N)N)C(=O)N[C@@H](CCN)C(=O)N[C@@H]([C@@H](C)O)C(=O)N[C@H](CCN)C(=O)N[C@@H](CCCCN)C(=O)N[C@H](C(=O)N[C@@H](CCN)C(=O)N[C@@H](CCCNC(=N)N)C(=O)N[C@@H](Cc2ccc(O)cc2)C(=O)O)CSSC1(C)C` [Example 125, Val-Hyp-Ile-Lys(Me)-Tyr-Pen-Asn-Arg-Dab-Thr-^DDab-Lys-Cys-Dab-Arg-Tyr] (HELM PEPTIDE1{V.[Hyp].I.[CNCCCC[C@H](N[*:1])C(=O)[*:2]].Y.[Pen].N.R.[Dab].T.[NCC[C@@H](N[*:1])C(=O)[*:2]].K.C.[Dab].R.Y}$PEPTIDE1,PEPTIDE1,6:R3-13:R3$$$V2.0), the “Klebsiella pneumoniae SSI3010 MIC” value [1] is reported as 0.5 µg/mL, the “Escherichia coli ATCC 25922 MIC” value [2] is reported as 0.125 µg/mL and the “Escherichia coli MCR-1 Af 45 MIC” value [3] is reported as 0.03125 µg/mL. For the same compound, the “Hemolysis at 0.2 g/L” value [4] was less than 1%.
With `CC[C@H](C)[C@H](NC(=O)[C@@H]1C[C@@H](O)CN1C(=O)[C@@H](N)C(C)C)C(=O)N[C@H](C(=O)N[C@@H](Cc1ccc(O)cc1)C(=O)N[C@@H]1C(=O)N[C@@H](CC(N)=O)C(=O)N[C@@H](CCCNC(=N)N)C(=O)N[C@@H](CCN)C(=O)N[C@@H]([C@@H](C)O)C(=O)N[C@H](CCN)C(=O)N[C@@H](CCCCN)C(=O)N[C@H](C(=O)N[C@@H](CCN)C(=O)N[C@@H](CCCNC(=N)N)C(=O)N[C@@H](Cc2ccc(O)cc2)C(=O)O)CSSC1(C)C)C(C)(C)O` [Example 126, Val-Hyp-Ile-Val(3OH)-Tyr-Pen-Asn-Arg-Dab-Thr-^DDab-Lys-Cys-Dab-Arg-Tyr] (HELM PEPTIDE1{V.[Hyp].I.[CC(C)(O)[C@H](N[*:1])C(=O)[*:2]].Y.[Pen].N.R.[Dab].T.[NCC[C@@H](N[*:1])C(=O)[*:2]].K.C.[Dab].R.Y}$PEPTIDE1,PEPTIDE1,6:R3-13:R3$$$V2.0) the “Klebsiella pneumoniae SSI3010 MIC” value [1] was 0.125 µg/mL, the “Escherichia coli ATCC 25922 MIC” value [2] was 0.0625 µg/mL and the “Escherichia coli MCR-1 Af 45 MIC” value [3] was 0.0625 µg/mL. The “Hemolysis at 0.2 g/L” value [4] was less than 1%.
For `CC[C@H](C)[C@H](NC(=O)[C@@H]1CC(F)(F)CN1C(=O)[C@@H](N)C(C)C)C(=O)N[C@H](C(=O)N[C@@H](Cc1ccc(O)cc1)C(=O)N[C@@H]1C(=O)N[C@@H](CC(N)=O)C(=O)N[C@@H](CCCNC(=N)N)C(=O)N[C@@H](CCN)C(=O)N[C@@H]([C@@H](C)O)C(=O)N[C@H](CCN)C(=O)N[C@@H](CCCCN)C(=O)N[C@H](C(=O)N[C@@H](CCN)C(=O)N[C@@H](CCCNC(=N)N)C(=O)N[C@@H](Cc2ccc(O)cc2)C(=O)O)CSSC1(C)C)[C@@H](C)O` [Example 127, Val-Pro(4,4F2)-Ile-Thr-Tyr-Pen-Asn-Arg-Dab-Thr-^DDab-Lys-Cys-Dab-Arg-Tyr] (HELM PEPTIDE1{V.[O=C([C@@H]1CC(F)(F)CN1[*:1])[*:2]].I.T.Y.[Pen].N.R.[Dab].T.[NCC[C@@H](N[*:1])C(=O)[*:2]].K.C.[Dab].R.Y}$PEPTIDE1,PEPTIDE1,6:R3-13:R3$$$V2.0), the “Klebsiella pneumoniae SSI3010 MIC” value [1] was 0.5 µg/mL, the “Escherichia coli ATCC 25922 MIC” value [2] was 0.25 µg/mL and the “Escherichia coli MCR-1 Af 45 MIC” value [3] was 0.125 µg/mL. For the same compound, the “Hemolysis at 0.2 g/L” value [4] was less than 1%.
With `CC[C@H](C)[C@H](NC(=O)[C@@H]1C=CCN1C(=O)[C@@H](N)C(C)C)C(=O)N[C@H](C(=O)N[C@@H](Cc1ccc(O)cc1)C(=O)N[C@@H]1C(=O)N[C@@H](CC(N)=O)C(=O)N[C@@H](CCCNC(=N)N)C(=O)N[C@@H](CCN)C(=O)N[C@@H]([C@@H](C)O)C(=O)N[C@H](CCN)C(=O)N[C@@H](CCCCN)C(=O)N[C@H](C(=O)N[C@@H](CCN)C(=O)N[C@@H](CCCNC(=N)N)C(=O)N[C@@H](Cc2ccc(O)cc2)C(=O)O)CSSC1(C)C)[C@@H](C)O` [Example 128, Val-Pro(3,4dehydro)-Ile-Thr-Tyr-Pen-Asn-Arg-Dab-Thr-^DDab-Lys-Cys-Dab-Arg-Tyr] (HELM PEPTIDE1{V.[O=C([C@@H]1C=CCN1[*:1])[*:2]].I.T.Y.[Pen].N.R.[Dab].T.[NCC[C@@H](N[*:1])C(=O)[*:2]].K.C.[Dab].R.Y}$PEPTIDE1,PEPTIDE1,6:R3-13:R3$$$V2.0) the “Klebsiella pneumoniae SSI3010 MIC” value [1] was 0.25 µg/mL, the “Escherichia coli ATCC 25922 MIC” value [2] was 0.125 µg/mL and the “Escherichia coli MCR-1 Af 45 MIC” value [3] was 0.125 µg/mL. For the same compound, the “Hemolysis at 0.2 g/L” value [4] was less than 1%.
`CC[C@H](C)[C@H](NC(=O)[C@@H]1C[C@@H](Oc2ccccc2)CN1C(=O)[C@@H](N)C(C)C)C(=O)N[C@H](C(=O)N[C@@H](Cc1ccc(O)cc1)C(=O)N[C@@H]1C(=O)N[C@@H](CC(N)=O)C(=O)N[C@@H](CCCNC(=N)N)C(=O)N[C@@H](CCN)C(=O)N[C@@H]([C@@H](C)O)C(=O)N[C@H](CCN)C(=O)N[C@@H](CCCCN)C(=O)N[C@H](C(=O)N[C@@H](CCN)C(=O)N[C@@H](CCCNC(=N)N)C(=O)N[C@@H](Cc2ccc(O)cc2)C(=O)O)CSSC1(C)C)[C@@H](C)O` [Example 129, Val-Pro(4,4F2)-Ile-Thr-Tyr-Pen-Asn-Arg-Dab-Thr-^DDab-Lys-Cys-Dab-Arg-Tyr] (HELM PEPTIDE1{V.[O=C([C@@H]1C[C@@H](Oc2ccccc2)CN1[*:1])[*:2]].I.T.Y.[Pen].N.R.[Dab].T.[NCC[C@@H](N[*:1])C(=O)[*:2]].K.C.[Dab].R.Y}$PEPTIDE1,PEPTIDE1,6:R3-13:R3$$$V2.0) was tested, and the “Klebsiella pneumoniae SSI3010 MIC” value [1] was 0.5 µg/mL, the “Escherichia coli ATCC 25922 MIC” value [2] was 0.125 µg/mL and the “Escherichia coli MCR-1 Af 45 MIC” value [3] was 0.0625 µg/mL. The “Hemolysis at 0.2 g/L” value [4] was less than 1%.
`CC[C@H](C)[C@H](NC(=O)[C@@H]1C[C@@H](OC)CN1C(=O)[C@@H](N)C(C)C)C(=O)N[C@H](C(=O)N[C@@H](Cc1ccc(O)cc1)C(=O)N[C@@H]1C(=O)N[C@@H](CC(N)=O)C(=O)N[C@@H](CCCNC(=N)N)C(=O)N[C@@H](CCN)C(=O)N[C@@H]([C@@H](C)O)C(=O)N[C@H](CCN)C(=O)N[C@@H](CCCCN)C(=O)N[C@H](C(=O)N[C@@H](CCN)C(=O)N[C@@H](CCCNC(=N)N)C(=O)N[C@@H](Cc2ccc(O)cc2)C(=O)O)CSSC1(C)C)[C@@H](C)O` [Example 130, Val-Pro((4R)OPh)-Ile-Thr-Tyr-Pen-Asn-Arg-Dab-Thr-^DDab-Lys-Cys-Dab-Arg-Tyr] (H-V[Hyp](Me)ITY[Pen]NR[Dab]T[dDab]KC[Dab]RY-OH; disulfide 6-13) was tested, and the “Klebsiella pneumoniae SSI3010 MIC” value [1] was 0.25 µg/mL, the “Escherichia coli ATCC 25922 MIC” value [2] was 0.125 µg/mL and the “Escherichia coli MCR-1 Af 45 MIC” value [3] was 0.125 µg/mL. For the same compound, the “Hemolysis at 0.2 g/L” value [4] was less than 1%.
For `CC[C@H](C)[C@H](NC(=O)[C@@H]1C[C@@H](F)CN1C(=O)[C@@H](N)C(C)C)C(=O)N[C@H](C(=O)N[C@@H](Cc1ccc(O)cc1)C(=O)N[C@@H]1C(=O)N[C@@H](CC(N)=O)C(=O)N[C@@H](CCCNC(=N)N)C(=O)N[C@@H](CCN)C(=O)N[C@@H]([C@@H](C)O)C(=O)N[C@H](CCN)C(=O)N[C@@H](CCCCN)C(=O)N[C@H](C(=O)N[C@@H](CCN)C(=O)N[C@@H](CCCNC(=N)N)C(=O)N[C@@H](Cc2ccc(O)cc2)C(=O)O)CSSC1(C)C)[C@@H](C)O` [Example 131, Val-Pro((4R)F)-Ile-Thr-Tyr-Pen-Asn-Arg-Dab-Thr-^DDab-Lys-Cys-Dab-Arg-Tyr] (HELM PEPTIDE1{V.[O=C([C@@H]1C[C@@H](F)CN1[*:1])[*:2]].I.T.Y.[Pen].N.R.[Dab].T.[NCC[C@@H](N[*:1])C(=O)[*:2]].K.C.[Dab].R.Y}$PEPTIDE1,PEPTIDE1,6:R3-13:R3$$$V2.0), the “Klebsiella pneumoniae SSI3010 MIC” value [1] was 0.5 µg/mL, the “Escherichia coli ATCC 25922 MIC” value [2] was 0.25 µg/mL and the “Escherichia coli MCR-1 Af 45 MIC” value [3] was 0.125 µg/mL. For the same compound, the “Hemolysis at 0.2 g/L” value [4] was less than 1%.
